Results reported in ChEMBL document CHEMBL1201862, “PubChem BioAssay data set” (2004).
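48-hour exposure; five concentrations; linearly interpolated endpoints. GI50: concentration for 50% inhibition of growth.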 Calls of active or inactive are those of the source. No stated cut-off is given here; in the data, active = GI50 up to about 1.1 µM and inactive = higher.

Tests used:
Experiment in all cases: NCI-60 cell line screen, 48 h
[1] = test system: SNB-19
[2] = test system: UACC-62
[3] = test system: MOLT-4
[4] = test system: M14
[5] = test system: TK-10
[6] = test system: KM12
[7] = test system: ACHN
[8] = test system: SW-620
[9] = test system: UO-31
[10] = test system: A498
[11] = test system: HOP-92
[12] = test system: SR
[13] = test system: RXF 393
[14] = test system: HCT-116
[15] = test system: NCI-H522
[16] = test system: 786-0
[17] = test system: SNB-75
[18] = test system: OVCAR-8

Measured: GI50

COc1cc2cc3c4c(cc(OC)c(OC)c4c2cc1OC)CCN3C(=O)CCC(=O)O
inactive: [1] > 100 µM | [2] > 100 µM | [3] > 100 µM | [4] > 100 µM | [5] > 100 µM | [6] > 100 µM | [7] > 100 µM | [8] > 100 µM | [9] > 100 µM | [10] 97.9 µM | [11] > 100 µM | [12] > 100 µM | [13] > 100 µM | [14] > 100 µM | [15] > 100 µM | [16] > 100 µM

CC(=O)O[C@H]1CC[C@@]2(C)C(=CC[C@@H]3C2CC[C@]2(C)Nc4c(cnn4-c4ccccc4)CC32)C1 (stereo partly drawn)
inactive: [2] 18.7 µM | [3] 2.07 µM | [4] 46.1 µM | [17] 4.07 µM | [5] 56.5 µM | [18] 29.4 µM | [6] 11.9 µM | [7] 13.8 µM | [8] 19.4 µM | [9] 27.1 µM | [10] 10.6 µM | [13] 3.53 µM | [14] 24.4 µM | [16] 4.73 µM

C=CCOC1CC(n2cnc3c(N)ncnc32)OC1CO (stereo not drawn)
inactive: [1] > 100 µM | [2] > 100 µM | [3] > 100 µM | [4] > 100 µM | [17] 51.1 µM | [5] > 100 µM | [18] > 100 µM | [6] > 100 µM | [7] > 100 µM | [8] > 100 µM | [9] > 100 µM | [11] > 100 µM | [12] > 100 µM | [14] > 100 µM | [15] > 100 µM | [16] > 100 µM

COC(=O)CC(C(C(=O)OCc1ccccc1)C(C)O)N1C(=O)OC(c2ccccc2)C1c1ccccc1 (stereo not drawn)
inactive: [1] > 100 µM | [2] 52 µM | [3] 44.2 µM | [4] > 100 µM | [5] > 100 µM | [18] > 100 µM | [7] > 100 µM | [8] > 100 µM | [9] 48.9 µM | [10] > 100 µM | [12] 81.5 µM | [13] > 100 µM | [14] > 100 µM | [16] > 100 µM

Cc1cc(Cl)ccc1NC(=O)C1C(=O)C(=O)N(c2ccc(Cl)cc2C)C1=O (stereo not drawn)
inactive: [1] 21 µM | [2] 63.2 µM | [3] 24.7 µM | [4] 31.2 µM | [17] > 100 µM | [5] > 100 µM | [18] 56.6 µM | [7] > 100 µM | [8] > 100 µM | [9] 75.7 µM | [10] > 100 µM | [11] 14.9 µM | [14] 43.8 µM | [15] 60.3 µM | [16] > 100 µM

O=C(/C=C\c1cccc2ccccc12)c1cccs1
inactive: [1] 12.6 µM | [2] 9.95 µM | [3] 5.06 µM | [4] 15.1 µM | [17] 23.6 µM | [5] 19 µM | [18] 7.08 µM | [6] 4.88 µM | [7] 11.5 µM | [8] 1.62 µM | [9] 12.9 µM | [10] 15.6 µM | [11] 11.9 µM | [14] 3.03 µM | [15] 2.52 µM | [16] 10.7 µM

CCCCCCCC(=O)OCC(COC(=O)C(C)(C)C)OC(=O)Cc1ccccc1 (stereo not drawn)
inactive: [1] > 100 µM | [2] > 100 µM | [3] > 100 µM | [4] > 100 µM | [5] > 100 µM | [18] > 100 µM | [7] > 100 µM | [8] > 100 µM | [9] > 100 µM | [10] > 100 µM | [11] > 100 µM | [14] > 100 µM | [16] > 100 µM

N#C/C(=N\c1ccccc1N(C(=O)c1ccccc1)C(=O)c1ccccc1)c1ccccc1
inactive: [1] 3.62 µM | [2] 35.9 µM | [3] 3.82 µM | [4] > 100 µM | [17] > 100 µM | [5] > 100 µM | [18] 10.3 µM | [6] 3.62 µM | [7] > 60.5 µM | [8] 6.52 µM | [9] > 55.5 µM | [10] > 59.2 µM | [11] 24.7 µM | [12] 2.4 µM | [14] 6.43 µM | [15] 4.91 µM | [16] > 91.6 µM

COc1cc2c3c(c1OC)-c1ccccc1C(C(O)c1ccccc1)C3N(C)CC2 (stereo not drawn)
inactive: [1] 88.5 µM | [2] 7.76 µM | [3] 24.3 µM | [4] 18.1 µM | [17] 40 µM | [5] 33.9 µM | [18] 69.3 µM | [6] 25.8 µM | [7] 39.1 µM | [8] 34.3 µM | [9] 19.1 µM | [11] 53.3 µM | [12] 18 µM | [13] 12.4 µM | [14] 19.6 µM | [15] 18.2 µM | [16] 30.7 µM

COc1cc(C2C(C(=O)O)=C(COC(C)=O)Oc3cc4c(cc32)OCO4)cc(OC)c1OC(C)=O (stereo not drawn)
inactive: [1] > 100 µM | [2] > 100 µM | [3] > 100 µM | [4] > 100 µM | [17] > 100 µM | [5] > 100 µM | [18] > 100 µM | [7] > 100 µM | [8] > 100 µM | [9] > 100 µM | [11] > 100 µM | [13] > 100 µM | [14] > 100 µM | [16] > 100 µM

O=C(O)COc1ccc(O)c2c1C(=O)CCCC2=O
inactive: [1] > 100 µM | [2] > 100 µM | [3] > 100 µM | [4] > 100 µM | [5] > 100 µM | [18] > 100 µM | [6] > 100 µM | [7] > 100 µM | [8] > 100 µM | [9] > 100 µM | [10] > 100 µM | [14] > 100 µM | [15] > 100 µM | [16] > 100 µM

CC(=O)O/N=C/c1cc2c(cc1Br)OCO2
inactive: [2] > 349 µM | [3] > 349 µM | [5] > 349 µM | [18] > 349 µM | [6] > 349 µM | [7] > 349 µM | [8] > 349 µM | [11] > 349 µM | [12] > 349 µM | [13] > 349 µM | [15] 185 µM | [16] > 349 µM

O=C(Cc1ccc([N+](=O)[O-])c([N+](=O)[O-])c1CC(=O)C(=O)Nc1cc(Cl)ccc1Cl)C(=O)Nc1cc(Cl)ccc1Cl
inactive: [1] > 100 µM | [2] > 100 µM | [3] 30 µM | [4] > 100 µM | [17] > 100 µM | [5] > 100 µM | [18] > 100 µM | [6] > 100 µM | [7] > 100 µM | [8] 37.9 µM | [9] > 100 µM | [10] > 100 µM | [11] > 100 µM | [12] > 100 µM | [13] 30.8 µM | [14] > 100 µM | [16] > 100 µM

COc1c2c(c3c(c1C1OC(C)[C@@H](C)O1)CC(C)(C)O3)C(=O)c1ccccc1C2=O (stereo partly drawn)
inactive: [1] > 100 µM | [2] 34.9 µM | [4] 65 µM | [17] 46.5 µM | [5] > 100 µM | [18] 34.3 µM | [6] 45.7 µM | [7] 40.5 µM | [8] 23.9 µM | [9] 36.7 µM | [11] 16.9 µM | [12] 22.5 µM | [13] 28 µM | [14] 42.7 µM | [15] > 10 µM | [16] 72.9 µM

CCOc1ccc2c(c1)[n+]([O-])c(-c1ccccc1Cl)c(N)[n+]2[O-]
inactive: [1] > 100 µM | [3] 74 µM | [4] > 100 µM | [17] 80 µM | [18] > 100 µM | [6] > 100 µM | [7] > 100 µM | [8] > 100 µM | [9] > 100 µM | [10] > 100 µM | [11] > 100 µM | [12] 94 µM | [13] > 100 µM | [14] > 100 µM | [15] 17.4 µM | [16] > 100 µM

O=C(O)CCSCCCN1C(=O)c2ccccc2C1=O
inactive: [1] > 100 µM | [2] > 100 µM | [3] > 100 µM | [17] > 100 µM | [5] > 100 µM | [18] > 100 µM | [6] > 100 µM | [7] > 100 µM | [8] > 100 µM | [9] > 100 µM | [11] > 100 µM | [12] > 100 µM | [13] > 100 µM | [14] > 100 µM | [16] > 100 µM

COc1cc(C)c(C(=O)/C=C/c2cc(OC)c(O)c(OC)c2)cc1O
inactive: [1] 18 µM | [2] 17.7 µM | [3] > 100 µM | [4] 15.3 µM | [17] 20.7 µM | [5] 45.6 µM | [18] 30.2 µM | [6] 15.9 µM | [7] 32.8 µM | [8] 26.4 µM | [9] 23 µM | [10] 31.6 µM | [14] 14.1 µM | [15] 18.1 µM | [16] 19.2 µM

COc1ccccc1NC(=O)c1nc2ccc([N+](=O)[O-])cc2nc1C
inactive: [1] > 100 µM | [2] > 100 µM | [3] > 100 µM | [4] > 100 µM | [17] 65.3 µM | [5] > 100 µM | [18] > 100 µM | [6] > 100 µM | [7] > 100 µM | [8] > 100 µM | [9] > 100 µM | [10] > 100 µM | [11] 51.8 µM | [14] > 100 µM | [15] 57.8 µM | [16] > 100 µM
